In patent US20230183292A1, “IMMUNOMODULATORS” (priority 2020, published 2023) one finds IC50 data, which are given here for 9 compounds.

Read-outs that look alike come from different tables or passages of the source. Starred links: 1 amine or outer side, 2 acyl side, 3 side chain; linkers in the order of their positions; H or OH if unused. Positions of bridges follow the written chain, without caps; N, C: chain ends. Non-standard residues stand in square brackets, D forms with d. Residues, ends and D or L forms follow the SMILES beside them. Groups on a side chain read outwards from the residue. *: point of attachment. Ursodeoxycholyl = C[C@H](CCC(=O)*)[C@H]1CC[C@H]2[C@@H]3[C@@H](O)C[C@@H]4C[C@H](O)CC[C@]4(C)[C@H]3CC[C@]12C; Cholyl = C[C@H](CCC(=O)*)[C@H]1CC[C@H]2[C@@H]3[C@H](O)C[C@@H]4C[C@H](O)CC[C@]4(C)[C@H]3C[C@H](O)[C@]12C; X35 = O=C(Cn1cc(C[C@H](N[*:1])C(=O)[*:2])c2ccccc21)NCC(F)(F)F; X27 = O=C(Cn1cc(C[C@H](N[*:1])C(=O)[*:2])c2ccccc21)Oc1ccccc1; X11 = O=C(Cn1cc(C[C@H](N[*:1])C(=O)[*:2])c2ccccc21)NCCCCCO; X30 = CCCCCCOC(=O)Cn1cc(C[C@H](N[*:1])C(=O)[*:2])c2ccccc21; X4 = O=C(Cn1cc(C[C@H](N[*:1])C(=O)[*:2])c2ccccc21)OCCOCCO; X34 = CCCCOC(=O)Cn1cc(C[C@H](N[*:1])C(=O)[*:2])c2ccccc21; X7 = NCCCCNC(=O)Cn1cc(C[C@H](N[*:1])C(=O)[*:2])c2ccccc21; X37 = O=C(Cn1cc(C[C@H](N[*:1])C(=O)[*:2])c2ccccc21)OCCO; X1 = NCCNC(=O)Cn1cc(C[C@H](N[*:1])C(=O)[*:2])c2ccccc21; Pro(4R-Me) = C[C@H]1CN[C@H](C(=O)O)C1; Hyp = O=C(O)[C@@H]1C[C@@H](O)CN1; NMeNle = CCCC[C@H](NC)C(=O)O; NMeA = CN[C@@H](C)C(=O)O; Dab = NCC[C@H](N)C(=O)O; Dap = NC[C@H](N)C(=O)O

The test addresses T1, PD-1/PD-L1 (Homo sapiens, UniProt Q9NZQ7).
T1 construct: TVMV protease site (C); made in house; host or cells: HEK293T cells
In words: PD-1/PD-L1 Homogenous Time-Resolved Fluorescence (HTRF) binding assay. The settings on record: PD-1-Ig 20 nM. The method in brief: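 Inhibitors pre-incubated 15 min with PD-L1-His (10 nM final) in dPBS, 0.1% BSA, 0.05% Tween-20, then 15 min with PD-1-Ig (20 nM final). Eu-cryptate anti-Ig (1 nM) and APC anti-His (20 nM) added, 30 min equilibration; HTRF 665/620 nm ratio. Human ECD proteins from HEK293T.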

Setting [1] is: PD-L1-His 10 nM, read-out: HTRF IC50.

T1 sequence (Q9NZQ7 18-239): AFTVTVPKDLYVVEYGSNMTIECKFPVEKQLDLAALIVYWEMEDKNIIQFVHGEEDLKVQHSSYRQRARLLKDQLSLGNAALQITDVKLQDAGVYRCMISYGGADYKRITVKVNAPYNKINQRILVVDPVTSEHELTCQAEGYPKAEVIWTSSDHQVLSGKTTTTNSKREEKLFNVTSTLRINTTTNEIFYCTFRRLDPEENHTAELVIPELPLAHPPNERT

Regarding `CCCC[C@H]1C(=O)N(C)[C@@H](CCCC)C(=O)N[C@@H](CC(C)C)C(=O)N[C@H](C(=O)NCC(N)=O)CSCC(=O)N[C@@H](Cc2ccc(O)cc2)C(=O)N(C)[C@@H](C)C(=O)N[C@@H](CC(N)=O)C(=O)N2CCC[C@H]2C(=O)N[C@@H](CNC(=O)CNC(=O)CC[C@@H](C)[C@H]2CC[C@H]3[C@@H]4[C@H](O)C[C@@H]5C[C@H](O)CC[C@]5(C)[C@H]4C[C@H](O)[C@]23C)C(=O)N[C@@H](CC(C)C)C(=O)N2C[C@H](C)C[C@H]2C(=O)N[C@@H](Cc2c[nH]c3ccccc23)C(=O)N[C@@H](CCNC(=O)CNC(=O)CC[C@@H](C)[C@H]2CC[C@H]3[C@@H]4[C@H](O)C[C@@H]5C[C@H](O)CC[C@]5(C)[C@H]4C[C@H](O)[C@]23C)C(=O)N[C@@H](Cc2cn(CC(=O)NCCCCCO)c3ccccc23)C(=O)N1C` [Example 2029] ({CH2CO}-Y[NMeA]NP[Dap]([Gly-Cholyl])L[Pro(4R-Me)]W[Dab]([Gly-Cholyl])[X11][NMeNle][NMeNle]LCG-NH2; thioether N-14), under setting [1], the 50% inhibitory concentration (IC50) stood at 670 nM.
Same read-out and setting: the value for `CCCC[C@H]1C(=O)N(C)[C@@H](CCCC)C(=O)N[C@@H](CC(C)C)C(=O)N[C@H](C(=O)NCC(N)=O)CSCC(=O)N[C@@H](Cc2ccc(O)cc2)C(=O)N(C)[C@@H](C)C(=O)N[C@@H](CC(N)=O)C(=O)N2CCC[C@H]2C(=O)N[C@@H](CNC(=O)CNC(=O)CC[C@@H](C)[C@H]2CC[C@H]3[C@@H]4[C@H](O)C[C@@H]5C[C@H](O)CC[C@]5(C)[C@H]4C[C@H](O)[C@]23C)C(=O)N[C@@H](CC(C)C)C(=O)N2C[C@H](C)C[C@H]2C(=O)N[C@@H](Cc2c[nH]c3ccccc23)C(=O)N[C@@H](CCNC(=O)CNC(=O)CC[C@@H](C)[C@H]2CC[C@H]3[C@@H]4[C@H](O)C[C@@H]5C[C@H](O)CC[C@]5(C)[C@H]4C[C@H](O)[C@]23C)C(=O)N[C@@H](Cc2cn(CC(=O)NCC(F)(F)F)c3ccccc23)C(=O)N1C` [Example 2030] ({CH2CO}-Y[NMeA]NP[Dap]([Gly-Cholyl])L[Pro(4R-Me)]W[Dab]([Gly-Cholyl])[X35][NMeNle][NMeNle]LCG-NH2; thioether N-14) was 5600 nM.
With `CCCC[C@H]1C(=O)N(C)[C@@H](CCCC)C(=O)N[C@@H](CC(C)C)C(=O)N[C@H](C(=O)NCC(N)=O)CSCC(=O)N[C@@H](Cc2ccc(O)cc2)C(=O)N(C)[C@@H](C)C(=O)N[C@@H](CC(N)=O)C(=O)N2CCC[C@H]2C(=O)N[C@@H](CNC(=O)CNC(=O)CC[C@@H](C)[C@H]2CC[C@H]3[C@@H]4[C@H](O)C[C@@H]5C[C@H](O)CC[C@]5(C)[C@H]4C[C@H](O)[C@]23C)C(=O)N[C@@H](CC(C)C)C(=O)N2C[C@H](C)C[C@H]2C(=O)N[C@@H](Cc2c[nH]c3ccccc23)C(=O)N[C@@H](CCNC(=O)CNC(=O)CC[C@@H](C)[C@H]2CC[C@H]3[C@@H]4[C@H](O)C[C@@H]5C[C@H](O)CC[C@]5(C)[C@H]4C[C@H](O)[C@]23C)C(=O)N[C@@H](Cc2cn(CC(=O)NCCCCN)c3ccccc23)C(=O)N1C` [Example 2031] ({CH2CO}-Y[NMeA]NP[Dap]([Gly-Cholyl])L[Pro(4R-Me)]W[Dab]([Gly-Cholyl])[X7][NMeNle][NMeNle]LCG-NH2; thioether N-14), the IC50 under setting [1] worked out at 490 nM.
On to `CCCC[C@H]1C(=O)N(C)[C@@H](CCCC)C(=O)N[C@@H](CC(C)C)C(=O)N[C@H](C(=O)NCC(N)=O)CSCC(=O)N[C@@H](Cc2ccc(O)cc2)C(=O)N(C)[C@@H](C)C(=O)N[C@@H](CC(N)=O)C(=O)N2CCC[C@H]2C(=O)N[C@@H](CNC(=O)CC[C@@H](C)[C@H]2CC[C@H]3[C@@H]4[C@@H](O)C[C@@H]5C[C@H](O)CC[C@]5(C)[C@H]4CC[C@]23C)C(=O)N[C@@H](CC(C)C)C(=O)N2C[C@H](C)C[C@H]2C(=O)N[C@@H](Cc2c[nH]c3ccccc23)C(=O)N[C@@H](CCNC(=O)CC[C@@H](C)[C@H]2CC[C@H]3[C@@H]4[C@@H](O)C[C@@H]5C[C@H](O)CC[C@]5(C)[C@H]4CC[C@]23C)C(=O)N[C@@H](Cc2cn(CC(=O)NCCN)c3ccccc23)C(=O)N1C` [Example 2032] ({CH2CO}-Y[NMeA]NP[Dap](Ursodeoxycholyl)L[Pro(4R-Me)]W[Dab](Ursodeoxycholyl)[X1][NMeNle][NMeNle]LCG-NH2; thioether N-14), for which the IC50 under setting [1] turned out to be 460 nM.
On the same count and under the same terms, the value for `CCCCOC(=O)Cn1cc(C[C@@H]2NC(=O)[C@H](CCNC(=O)CNC(=O)CC[C@@H](C)[C@H]3CC[C@H]4[C@@H]5[C@H](O)C[C@@H]6C[C@H](O)CC[C@]6(C)[C@H]5C[C@H](O)[C@]34C)NC(=O)[C@H](Cc3c[nH]c4ccccc34)NC(=O)[C@@H]3C[C@@H](C)CN3C(=O)[C@H](CC(C)C)NC(=O)[C@H](CNC(=O)CNC(=O)CC[C@@H](C)[C@H]3CC[C@H]4[C@@H]5[C@H](O)C[C@@H]6C[C@H](O)CC[C@]6(C)[C@H]5C[C@H](O)[C@]34C)NC(=O)[C@@H]3CCCN3C(=O)[C@H](CC(N)=O)NC(=O)[C@H](C)N(C)C(=O)[C@H](Cc3ccc(O)cc3)NC(=O)CSC[C@@H](C(=O)NCC(N)=O)NC(=O)[C@H](CC(C)C)NC(=O)[C@H](CCCC)N(C)C(=O)[C@H](CCCC)N(C)C2=O)c2ccccc21` [Example 2033] ({CH2CO}-Y[NMeA]NP[Dap]([Gly-Cholyl])L[Pro(4R-Me)]W[Dab]([Gly-Cholyl])[X34][NMeNle][NMeNle]LCG-NH2; thioether N-14) was 4.2 nM.
Still for that read-out and setting: the value for `CCCCCCOC(=O)Cn1cc(C[C@@H]2NC(=O)[C@H](CCNC(=O)CNC(=O)CC[C@@H](C)[C@H]3CC[C@H]4[C@@H]5[C@H](O)C[C@@H]6C[C@H](O)CC[C@]6(C)[C@H]5C[C@H](O)[C@]34C)NC(=O)[C@H](Cc3c[nH]c4ccccc34)NC(=O)[C@@H]3C[C@@H](C)CN3C(=O)[C@H](CC(C)C)NC(=O)[C@H](CNC(=O)CNC(=O)CC[C@@H](C)[C@H]3CC[C@H]4[C@@H]5[C@H](O)C[C@@H]6C[C@H](O)CC[C@]6(C)[C@H]5C[C@H](O)[C@]34C)NC(=O)[C@@H]3CCCN3C(=O)[C@H](CC(N)=O)NC(=O)[C@H](C)N(C)C(=O)[C@H](Cc3ccc(O)cc3)NC(=O)CSC[C@@H](C(=O)NCC(N)=O)NC(=O)[C@H](CC(C)C)NC(=O)[C@H](CCCC)N(C)C(=O)[C@H](CCCC)N(C)C2=O)c2ccccc21` [Example 2034] ({CH2CO}-Y[NMeA]NP[Dap]([Gly-Cholyl])L[Pro(4R-Me)]W[Dab]([Gly-Cholyl])[X30][NMeNle][NMeNle]LCG-NH2; thioether N-14) was 5200 nM; that for `CCCC[C@H]1C(=O)N(C)[C@@H](CCCC)C(=O)N[C@@H](CC(C)C)C(=O)N[C@H](C(=O)NCC(N)=O)CSCC(=O)N[C@@H](Cc2ccc(O)cc2)C(=O)N(C)[C@@H](C)C(=O)N[C@@H](CC(N)=O)C(=O)N2CCC[C@H]2C(=O)N[C@@H](CNC(=O)CNC(=O)CC[C@@H](C)[C@H]2CC[C@H]3[C@@H]4[C@H](O)C[C@@H]5C[C@H](O)CC[C@]5(C)[C@H]4C[C@H](O)[C@]23C)C(=O)N[C@@H](CC(C)C)C(=O)N2C[C@H](C)C[C@H]2C(=O)N[C@@H](Cc2c[nH]c3ccccc23)C(=O)N[C@@H](CCNC(=O)CNC(=O)CC[C@@H](C)[C@H]2CC[C@H]3[C@@H]4[C@H](O)C[C@@H]5C[C@H](O)CC[C@]5(C)[C@H]4C[C@H](O)[C@]23C)C(=O)N[C@@H](Cc2cn(CC(=O)OCCO)c3ccccc23)C(=O)N1C` [Example 2035] ({CH2CO}-Y[NMeA]NP[Dap]([Gly-Cholyl])L[Pro(4R-Me)]W[Dab]([Gly-Cholyl])[X37][NMeNle][NMeNle]LCG-NH2; thioether N-14) was 830 nM; that for `CCCC[C@H]1C(=O)N(C)[C@@H](CCCC)C(=O)N[C@@H](CC(C)C)C(=O)N[C@H](C(=O)NCC(N)=O)CSCC(=O)N[C@@H](Cc2ccc(O)cc2)C(=O)N(C)[C@@H](C)C(=O)N[C@@H](CC(N)=O)C(=O)N2CCC[C@H]2C(=O)N[C@@H](CNC(=O)CNC(=O)CC[C@@H](C)[C@H]2CC[C@H]3[C@@H]4[C@H](O)C[C@@H]5C[C@H](O)CC[C@]5(C)[C@H]4C[C@H](O)[C@]23C)C(=O)N[C@@H](CC(C)C)C(=O)N2C[C@H](C)C[C@H]2C(=O)N[C@@H](Cc2c[nH]c3ccccc23)C(=O)N[C@@H](CCNC(=O)CNC(=O)CC[C@@H](C)[C@H]2CC[C@H]3[C@@H]4[C@H](O)C[C@@H]5C[C@H](O)CC[C@]5(C)[C@H]4C[C@H](O)[C@]23C)C(=O)N[C@@H](Cc2cn(CC(=O)OCCOCCO)c3ccccc23)C(=O)N1C` [Example 2036] ({CH2CO}-Y[NMeA]NP[Dap]([Gly-Cholyl])L[Pro(4R-Me)]W[Dab]([Gly-Cholyl])[X4][NMeNle][NMeNle]LCG-NH2; thioether N-14) was 1000 nM.
`CCCC[C@H]1C(=O)N(C)[C@@H](CCCC)C(=O)N[C@@H](CC(C)C)C(=O)N[C@H](C(=O)NCC(N)=O)CSCC(=O)N[C@@H](Cc2ccc(O)cc2)C(=O)N(C)[C@@H](C)C(=O)N[C@@H](CC(N)=O)C(=O)N2CCC[C@H]2C(=O)N[C@@H](CNC(=O)CNC(=O)CC[C@@H](C)[C@H]2CC[C@H]3[C@@H]4[C@H](O)C[C@@H]5C[C@H](O)CC[C@]5(C)[C@H]4C[C@H](O)[C@]23C)C(=O)N[C@@H](CC(C)C)C(=O)N2C[C@H](O)C[C@H]2C(=O)N[C@@H](Cc2c[nH]c3ccccc23)C(=O)N[C@@H](CCNC(=O)CNC(=O)CC[C@@H](C)[C@H]2CC[C@H]3[C@@H]4[C@H](O)C[C@@H]5C[C@H](O)CC[C@]5(C)[C@H]4C[C@H](O)[C@]23C)C(=O)N[C@@H](Cc2cn(CC(=O)Oc3ccccc3)c3ccccc23)C(=O)N1C` [Example 2037] ({CH2CO}-Y[NMeA]NP[Dap]([Gly-Cholyl])L[Hyp]W[Dab]([Gly-Cholyl])[X27][NMeNle][NMeNle]LCG-NH2; thioether N-14) yielded an IC50 (HTRF IC50, PD-L1-His 10 nM) of 420 nM.
